Earlier results, collected in patent US9180154B2, “Method of manufacturing magnoliidae compounds” (Arizona Health Consulting Group, LLC, priority 2009, dated 2015).

What was measured:
D2 receptor = target: T1, D2 receptor (Rattus norvegicus, UniProt P61169)
T1 construct: from tissue; host or cells: normal rats (in vivo; tissue not specified)

D1 receptors = target: T2, D1 receptors (Rattus norvegicus, UniProt P18901); settings: rats with unilateral nigral lesion (DA receptor super sensitivity in striatum)
T2 construct: from tissue; host or cells: rats with unilateral nigral lesion (in vivo; striatum mentioned)
T2 sequence (P18901 whole entry): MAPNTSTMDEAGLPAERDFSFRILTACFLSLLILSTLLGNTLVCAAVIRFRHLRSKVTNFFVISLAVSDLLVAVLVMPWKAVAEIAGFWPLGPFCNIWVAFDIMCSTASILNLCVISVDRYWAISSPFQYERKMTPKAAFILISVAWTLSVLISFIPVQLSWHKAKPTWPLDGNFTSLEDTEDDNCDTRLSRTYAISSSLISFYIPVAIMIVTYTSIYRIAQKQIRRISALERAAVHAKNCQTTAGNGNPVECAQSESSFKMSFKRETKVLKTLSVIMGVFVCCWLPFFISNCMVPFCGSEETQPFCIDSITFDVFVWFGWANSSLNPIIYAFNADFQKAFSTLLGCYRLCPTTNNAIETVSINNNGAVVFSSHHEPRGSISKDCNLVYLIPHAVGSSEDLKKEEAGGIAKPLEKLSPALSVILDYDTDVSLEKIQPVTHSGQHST

[1] = tested on: D1-type and D2-type DA receptor; settings: D1-type versus D2-type DA receptor

T1 sequence (P61169 whole entry): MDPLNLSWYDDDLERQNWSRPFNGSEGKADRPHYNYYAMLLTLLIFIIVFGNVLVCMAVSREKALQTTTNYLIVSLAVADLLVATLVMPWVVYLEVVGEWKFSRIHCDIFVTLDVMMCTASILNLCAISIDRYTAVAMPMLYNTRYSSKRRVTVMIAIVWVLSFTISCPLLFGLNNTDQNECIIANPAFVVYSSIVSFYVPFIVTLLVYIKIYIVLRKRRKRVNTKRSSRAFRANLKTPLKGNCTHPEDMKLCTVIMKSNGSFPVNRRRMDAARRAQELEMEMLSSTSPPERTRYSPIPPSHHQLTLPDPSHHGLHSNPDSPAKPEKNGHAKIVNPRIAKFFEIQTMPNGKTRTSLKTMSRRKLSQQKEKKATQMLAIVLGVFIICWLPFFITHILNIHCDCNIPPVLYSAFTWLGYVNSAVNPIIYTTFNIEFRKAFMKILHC

receptor action in lesioned rats (D1 receptors) | Structure (SMILES) | receptor action in normal rats (D2 receptor) | effect on D1-type and D2-type DA receptor binding [1]
acts on D1 receptors as an agonist | COc1cc2c(cc1O)[C@@H]1Cc3ccc(O)c(OC)c3CN1CC2 [l-SPD, l-Stepholidine] | characteristics of D2 receptor antagonist | 
 | COc1ccc2c(c1OC)CN1CCc3cc4c(cc3C1C2)OCO4 (stereo not drawn) [THB, tetrahydroberberine] |  | equipotent
